Measured values taken from patent US20160279263A1, “DRUG DELIVERY COMPOSITIONS AND METHODS TARGETING P-GLYCOPROTEIN” (CORNELL UNIVERSITY, priority 2012, published 2016).

Biological target: T1, P-gp (Homo sapiens, UniProt P08183)
T1 construct: expressed in transfected cells; host or cells: MDA-435/LCC6 MDR cells, with MDA-435/LCC6 WT as the P-gp-negative comparison
Test: FACS accumulation/efflux in MDA-435/LCC6 MDR cells compared with WT cells
Format: cell-based
From the text: Before tests were initiated, P-gp expression in both MDR and WT cells was confirmed by Western blot, which confirmed the expression of P-gp in the MDR cells and the lack of expression in WT cells. The protein band in the MDR cells was visible around the molecular weight of P-gp, 170 kDa, which correlates to the reported molecular weight of the protein.
No differences in P-gp function were observed. […] Statistics represent the significance differences in WT/MDR accumulation ratio at a p-value of <0.01.

T1 sequence (P08183 whole entry): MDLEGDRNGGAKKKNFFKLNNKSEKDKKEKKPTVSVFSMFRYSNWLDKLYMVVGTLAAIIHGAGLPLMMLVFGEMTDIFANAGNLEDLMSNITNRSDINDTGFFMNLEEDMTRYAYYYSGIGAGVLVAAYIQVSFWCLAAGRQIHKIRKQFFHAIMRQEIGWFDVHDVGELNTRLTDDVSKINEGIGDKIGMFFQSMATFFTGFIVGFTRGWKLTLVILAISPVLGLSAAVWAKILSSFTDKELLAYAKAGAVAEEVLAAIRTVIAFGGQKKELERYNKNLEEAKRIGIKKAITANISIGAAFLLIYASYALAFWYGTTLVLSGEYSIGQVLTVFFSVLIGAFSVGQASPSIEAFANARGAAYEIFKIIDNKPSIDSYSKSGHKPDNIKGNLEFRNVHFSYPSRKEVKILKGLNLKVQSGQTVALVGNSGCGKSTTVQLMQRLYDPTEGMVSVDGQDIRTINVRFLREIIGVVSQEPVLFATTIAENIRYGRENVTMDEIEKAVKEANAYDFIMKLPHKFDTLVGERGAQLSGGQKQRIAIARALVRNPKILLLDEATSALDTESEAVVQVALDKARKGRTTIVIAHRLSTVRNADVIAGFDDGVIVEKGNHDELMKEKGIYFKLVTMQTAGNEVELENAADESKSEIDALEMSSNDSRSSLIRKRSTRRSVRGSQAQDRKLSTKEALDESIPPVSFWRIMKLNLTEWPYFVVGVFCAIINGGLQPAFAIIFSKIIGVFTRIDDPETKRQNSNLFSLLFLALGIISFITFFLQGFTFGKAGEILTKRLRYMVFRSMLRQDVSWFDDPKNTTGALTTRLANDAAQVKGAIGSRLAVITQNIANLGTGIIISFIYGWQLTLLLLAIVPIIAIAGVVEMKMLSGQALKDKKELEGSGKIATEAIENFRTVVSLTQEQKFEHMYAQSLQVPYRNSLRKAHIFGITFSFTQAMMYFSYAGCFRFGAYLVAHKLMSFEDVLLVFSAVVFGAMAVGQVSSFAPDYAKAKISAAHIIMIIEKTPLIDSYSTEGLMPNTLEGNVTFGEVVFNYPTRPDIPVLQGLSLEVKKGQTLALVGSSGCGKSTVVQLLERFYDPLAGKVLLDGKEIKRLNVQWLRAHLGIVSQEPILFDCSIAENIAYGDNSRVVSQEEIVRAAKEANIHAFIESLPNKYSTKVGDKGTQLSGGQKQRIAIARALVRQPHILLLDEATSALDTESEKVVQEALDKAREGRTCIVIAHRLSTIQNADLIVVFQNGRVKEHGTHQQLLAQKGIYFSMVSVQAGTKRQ

For Rhodamine 123 [free Rho123], the “accumulation in MDR cells at 4° C.” value (4° C. relative to 37° C.) was “increase” and the “WT to MDR accumulation ratio with verapamil” value (5, 25, 50, 75 and 100 μM verapamil, mode fluorescence) was “increase in accumulation ratio with increasing verapamil concentration”.
